Patent publication US20130172246A1, “INSULIN GLARGINE VERSUS METFORMIN FOR THE FIRST-LINE TREATMENT OF EARLY TYPE-2 DIABETES” (priority 2011, published 2013)

System: type 2 diabetes patients
Test: Continuous glucose monitoring (CGM) with standardized test meal, clinical trial insulin glargine vs. metformin
Format: in vivo, human
Set-up: AUC 2hpp value after a test meal - Visit 1 / AUC 2hpp value after a test meal - Visit 8 / AUC day 2 - visit 8 / AUC day 2 - change / AUC day 3 - visit 8 / AUC day 3 - change / AUC 2 h incremental after TM - visit 8 / AUC 2 h incremental after TM - change / AUC between 5.6 and fasting on day 2 - visit 8 / AUC between 5.6 and fasting on day 2 - change / AUC between 5.6 and fasting on day 3 - visit 8 / AUC between 5.6 and fasting on day 3 - change / AUC 2 h after test meal - visit 8 / AUC 2 h after test meal change: unit not given beside the values
Conditions: for Glycemic load - visit 8: (FG+Peak+2hppG)·⅓; for Glycemic load - visit 8 / MAGE - visit 8 / AUC day 2 - change / AUC day 2 - visit 8 / AUC day 3 - change / AUC day 3 - visit 8 / AUC between 5.6 and fasting on day 2 - change / AUC between 5.6 and fasting on day 3 - change / AUC 2 h after test meal change / AUC 2 h incremental after TM - change / Glycemic load - change / MAGE - change / AUC 2 h after test meal - visit 8 / AUC between 5.6 and fasting on day 2 - visit 8 / AUC between 5.6 and fasting on day 3 - visit 8 / AUC 2 h incremental after TM - visit 8: per protocol; for Glycemic load - visit 8 / MAGE - visit 8 / AUC day 2 - visit 8 / AUC day 3 - visit 8 / AUC 2 h after test meal - visit 8 / AUC between 5.6 and fasting on day 2 - visit 8 / AUC between 5.6 and fasting on day 3 - visit 8 / AUC 2 h incremental after TM - visit 8: week 36; for Glycemic load - visit 8 / AUC 2hpp value after a test meal - Visit 1 / MAGE - visit 8 / AUC 2 h after test meal change / AUC 2 h incremental after TM - change / Glycemic load - change / MAGE - change / AUC 2 h incremental after TM - visit 8 / AUC 2hpp value after a test meal - Visit 8: mean (SD); for fall of the total area under the curve (AUC-IG): CGM, p=0.04; for fall of the total area under the curve (AUC-IG) / decrease in the interstitial glucose level during CGM (Δ): start to end of study; for AUC 2hpp value after a test meal - Visit 1: baseline (week 0) before treatment; for MAGE - visit 8: mean amplitude of glycemic excursions; for AUC day 2 - change / AUC day 2 - visit 8: CGM day 2; for AUC day 2 - change / AUC day 3 - change / AUC between 5.6 and fasting on day 2 - change / AUC between 5.6 and fasting on day 3 - change / AUC 2 h after test meal change / AUC 2 h incremental after TM - change / Glycemic load - change / MAGE - change: change visit 1 to visit 8; for AUC day 2 - change / AUC day 2 - visit 8 / AUC day 3 - change / AUC day 3 - visit 8 / AUC between 5.6 and fasting on day 2 - change / AUC between 5.6 and fasting on day 3 - change / AUC 2 h after test meal - visit 8 / AUC between 5.6 and fasting on day 2 - visit 8 / AUC between 5.6 and fasting on day 3 - visit 8: mean; for AUC day 3 - change / AUC day 3 - visit 8: CGM day 3; for decrease in the interstitial glucose level during CGM (Δ): GLA vs. MET p=0.02; for AUC 2hpp value after a test meal - Visit 8: week 36 of treatment
Procedure: The primary target variable determined was the Area Under the Curve (AUC) in mmol/L/time in subcutaneous abdominal fat after a test meal (TM) in a 2-hour course, which was determined by continuous blood glucose monitoring. The test meal was administered on the 2nd day of the CGM as breakfast. • AUC [mmol/L/time] 2 h pp
CGMS: The system used for continuous glucose monitoring is the CGMS from Medtronic, CGMS® System Gold™ monitor/MiniMed glucose subcutaneous sensor. The system is authorized for continuous glucose monitoring over a period of 72 h. The measurement sensor is inserted into subcutaneous fat tissue with the aid of an applicator. The entire sensor is stuck on the skin using a plaster. This is followed by the calibration of the device for approximately 5 hours, during which the subcutaneous levels are synchronized with the capillary blood glucose levels. Over the course of 72 h, further calibrations are required, as recommended by the manufacturer. The measured data of the sensor are transmitted by means of radio frequency to the CGMS® System Gold™ monitor, which is worn on the belt for example. After completion of the measurement period, the sensor is removed and the data of the monitor are evaluated on the computer using the software. For the evaluation, only the measured data of the first 48 hours are used, since the accuracy of measurement decreases over the course of the third day.
Test meal: On the morning of the 2nd day of the CGM, there is a standardized test meal in the trial center. This test meal (TM) consists of 95 g of whole-wheat bread, 20 g of margarine, 25 g of fruit preserves, 25 g of cheese, 200 ml of orange juice, 200 ml of milk mix with banana, strawberry or cocoa with a total of 560 Kcal. Blood is taken from the patient prior to the TM (after night-time fasting period of at least 8 hours). Subsequently, the TM should be eaten within 15 min. From the 1st bite, the time is measured, and after 2 h have elapsed, a 2nd blood collection is performed. During the TM and during the two hours thereafter, the patient should move as little as possible so as not to falsify the monitoring.
The primary target variable is the AUC (BG) TM of the glucose concentration in subcutaneous abdominal fat after a standardized test meal over a period of 2 hours. The AUC is calculated accordina to the trapezoidal rule.
• Mean HbA1c, • Glycemic variability: • Standard deviation (SD) of the mean glucose concentration over 24 h (day 2), • MAGE—mean amplitude of glycemic excursion calculated as the mean from the glucose increases>1 SD of the mean glucose concentration over the course of 24 h • Glycemic load calculated by (FG+Peak+2hppG)·⅓ • Mean of C-peptide and intact proinsulin (fasting and 2 h pp) • Mean free fatty acids • Biomarkers of subclinical inflammation (hsCRP, PAI-1, leukocyte count fasting and 2 h postprandial) • Microalbuminuria (albumin/creatinine ratio) • Endothelial function at ball of thumb using laser Doppler (O2C) • Hypoglycemic intervals (time<3 mmol glucose) during CGM over 48 hours (day 2+3 after TM)
In the study in the previous examples, 75 patients (45 men, 30 women, mean age: 60.7±9.2 years) were examined, whose first diagnosis of type 2 diabetes dated back to less than 5 years and whose HbA1c level was between 6.5 and 8.5%. The patients were treated with either metformin (MET, 1000 mg b.i.d. (n=3)) or insulin glargine (GLA) q.d. just before bedtime (n=3). The insulin dose was adjusted for a target plasma glucose concentration (FPG) of ≦5.6 mmol/L according to a standardized titration algorithm. At the start and end of the study, the HbA1c level and the plasma glucose, proinsulin and C-peptide concentrations were determined. […] All the patients received a standardized test meal on the second day of the continuous glucose monitoring for comparison of the interindividual postprandial (pp) glucose excursions.

Compound | Glycemic load - visit 8 | fall of the total area under the curve (AUC-IG) [mmol·min/L] | AUC 2hpp value after a test meal - Visit 1 | MAGE - visit 8 | AUC day 2 - change | AUC day 2 - visit 8 | AUC day 3 - change | AUC day 3 - visit 8 | AUC between 5.6 and fasting on day 2 - change | AUC between 5.6 and fasting on day 3 - change | AUC 2 h after test meal change | AUC 2 h incremental after TM - change | Glycemic load - change | MAGE - change | AUC 2 h after test meal - visit 8 | AUC between 5.6 and fasting on day 2 - visit 8 | AUC between 5.6 and fasting on day 3 - visit 8 | AUC 2 h incremental after TM - visit 8 | decrease in the interstitial glucose level during CGM (Δ) [mmol/L] | AUC 2hpp value after a test meal - Visit 8 | other results
Insulin glargine | 8.8 (1.6) | 671.2 ± 507.9 | 287.38 (67.235) | 8.0 (2.3) | −671.2 | 2000.3 | −628.2 | 2045.0 | −565.4 | −571.5 | −63.0 (5.4) | −5.7 (40.4) | −2.7 (1.9) | −0.4 (3.4) | 224.4 | −58.5 | −11.6 | 68.3 (24.6) | 2.4 ± 1.8 | 224.38 (40.048) | postprandial plasma glucose two hours after a test meal and differences in AUC-IG after the test meal (GLA vs. MET): showed no significance
CN(C)C(=N)N=C(N)N [Metformin] | 8.5 (2.1) | 416.1 ± 537.6 | 256.50 (72.837) | 6.3 (2.4) | −416.1 | 1978.5 | −411.5 | 1972.5 | −356.5 | −317.4 | −42.9 (73.1) | −5.8 (31.8) | −1.7 (2.7) | −0.8 (3.3) | 213.6 | −15.4 | 41.1 | 49.6 (25.0) | 1.4 ± 1.8 | 213.61 (52.844) | 
